Experimental data: US10570117B2, “Phenylimidazole compound” (Otsuka Pharmaceutical Factory, Inc., priority 2015, dated 2020)
Converted amounts (≈) assume the structure as drawn. Read-outs that look alike come from different tables or passages of the source.

Columns and labels:
[1] = system: lipoprotein lipase (LPL) gene; experiment: LPL mRNA elevating action (RT-PCR quantification of LPL mRNA in C2Cl2 cells); format: cell-based, mouse; conditions: Mus musculus, 24 h, compound 10 μM, ratio relative to the amount of LPL mRNA in cells with DMSO only, read-out: Rate of increase in LPL mRNA
How it was run: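 Mouse striated-muscle C2Cl2 cells in DMEM with 10% FBS exposed to compounds at 10 μM for 24 h. LPL mRNA quantified by RT-PCR and real-time PCR (20 cycles), expressed as ratio to DMSO-only cells set at 1.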

[2] = Solubility in gastric juice or intestinal juice model fluid (precipitation method using DMSO); format: physicochemical; conditions: room temperature
How it was run: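 Compound in DMSO added to JP disintegration test fluid 1 (pH 1.2) or fluid 2 (pH 6.8) and shaken 24 h at room temperature. After filtration, dissolved concentration (μg/mL) determined by UV absorbance against compound calibration curves.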

[3] = pH 1.2, simulated gastric fluid, kinetic from dmso stock, 1st fluid for Disintegration Test of Japanese Pharmacopoeia (pH: 1.2), read-out: Solubility (μg/mL) 1st fluid
[4] = pH 6.8, kinetic from dmso stock, 2nd fluid for Disintegration Test of Japanese Pharmacopoeia (pH: 6.8), read-out: Solubility (μg/mL) 2nd fluid

SMILES | melting point | solubility at 24 h [2, 3] | solubility at 24 h [2, 4] | fold induction at 10 µM [1]
COc1cc(OCc2ncc(Cl)cc2C(F)(F)F)ccc1-c1[nH]c(-c2ccc(F)nc2)nc1Br [Example 274] | 167 to 168 °C | 6.7 µg/mL (≈ 12 µM) | 0.4 µg/mL (≈ 0.717 µM) | 3.41
COc1cc(OCc2ccc(C(F)(F)F)nc2)ccc1-c1nc(-c2ccc(Cl)nc2)n(CC2CC2)c1C [Example 154] | 110 to 112 °C | 104 µg/mL (≈ 196 µM) | 2 µg/mL (≈ 3.78 µM) | 5.78
COCCOc1cc(OCc2ccc(C(F)(F)F)cn2)ccc1-c1c[nH]c(-c2ccc(Cl)nc2)n1 [Example 21] | 162 to 167 °C | 3 µg/mL (≈ 5.94 µM) | < 1.8 µg/mL | 1.99
COc1cc(-c2[nH]c(C3CCCC3)nc2Cl)ccc1OCc1ccc(C(F)(F)F)cn1 [Example 194] | 182 to 184 °C (dec.) | > 90 µg/mL | 0.5 µg/mL (≈ 1.11 µM) | 3.92
COc1cc(OCc2ncc(F)cc2F)ccc1-c1cnc(-c2ccc(Cl)nc2)[nH]1 [Example 103] | 190 to 192 °C | 36 µg/mL (≈ 84 µM) | < 0.3 µg/mL | 2.36
COc1cc(OCc2ncc(Br)cc2F)ccc1-c1[nH]c(-c2ccc(F)nc2)nc1Cl [Example 175] | 122 to 124 °C | 10 µg/mL (≈ 19.7 µM) | 2.5 µg/mL (≈ 4.92 µM) | 3.94
COc1cc(-c2c[nH]c(C3CCC3)n2)ccc1OCc1ccc(C(F)(F)F)cn1 [Example 73] | 210 to 213 °C (dec.) | > 108 µg/mL | 5.3 µg/mL (≈ 13.1 µM) | 4.07
COc1cc(-c2nc(C3CCCCC3)[nH]c2Cl)ccc1OCc1ccc(C(F)(F)F)cn1 [Example 234] | 171 to 175 °C | 92.8 µg/mL (≈ 199 µM) | < 0.3 µg/mL | 3.06
COc1cc(OCc2cccc(C#N)n2)ccc1-c1c[nH]c(C2CCCCC2)n1 [Example 55] | 182 to 187 °C | > 78 µg/mL | 2.3 µg/mL (≈ 5.92 µM) | 4.24
COc1cc(-c2c[nH]c(-c3ccc(Cl)nc3)n2)ccc1OCc1cccc(F)n1 [Example 47] | 185 to 187 °C | 5.1 µg/mL (≈ 12.4 µM) | 0.3 µg/mL (≈ 0.73 µM) | 3.26
COc1cc(OCc2ccc(C(F)(F)F)cn2)ccc1-c1c(C)nc(-c2ccc(Cl)nc2)n1CC1CC1 [Example 157] | 145 to 148 °C | 106 µg/mL (≈ 199 µM) | 1.9 µg/mL (≈ 3.59 µM) | 4.05
COc1cc(OCc2ncc(Cl)cc2F)ccc1-c1cnc(-c2ccc(Cl)nc2)[nH]1 [Example 104] | 211 to 218 °C | 20.6 µg/mL (≈ 46.3 µM) | 0.7 µg/mL (≈ 1.57 µM) | 2.27
COc1cc(OCc2ncc(Br)cc2F)ccc1-c1[nH]c(-c2ccc(F)nc2)nc1Br [Example 268] | 179 to 181 °C | 13.8 µg/mL (≈ 25 µM) | 6.6 µg/mL (≈ 12 µM) | 2.53
COc1cc(OCc2ccc(C(F)(F)F)cn2)ccc1-c1nc(-c2ccc(F)nc2)[nH]c1Cl [Example 233] | 190 to 193 °C | 9.9 µg/mL (≈ 20.7 µM) | 1.1 µg/mL (≈ 2.3 µM) | 3.87
COc1cc(OCc2cncc(C(F)(F)F)c2)ccc1-c1cnc(-c2ccc(Cl)nc2)[nH]1 [Example 106] | 191 to 203 °C | 31.2 µg/mL (≈ 67.7 µM) | 6.3 µg/mL (≈ 13.7 µM) | 2.66
COc1cc(OCc2cnccn2)ccc1-c1nc(-c2ccc(Cl)nc2)[nH]c1Cl [Example 230] | 172 to 174 °C | 7.2 µg/mL (≈ 16.8 µM) | < 0.3 µg/mL | 1.58
COc1cc(OCc2ncc(F)cc2F)ccc1-c1[nH]c(-c2ccc(F)nc2)nc1Br [Example 266] | 161 to 164 °C | 64.3 µg/mL (≈ 131 µM) | 4.6 µg/mL (≈ 9.36 µM) | 2.38
COc1cc(-c2[nH]c(C3CCC(F)(F)CC3)nc2Cl)ccc1OCc1ccc(C(F)(F)F)nc1 [Example 203] | 164 to 167 °C | 63.8 µg/mL (≈ 127 µM) | < 1.8 µg/mL | 5.47
COc1cc(OCc2coc(C)n2)ccc1-c1nc(-c2ccc(Cl)nc2)[nH]c1Cl [Example 211] | 136 to 155 °C | 84.7 µg/mL (≈ 196 µM) | 2.2 µg/mL (≈ 5.1 µM) | 2.55
COc1cc(-c2[nH]c(C3CC(F)(F)C3)nc2Cl)ccc1OCc1ccc(C(F)(F)F)cn1 [Example 191] | 201 to 203 °C (dec.) | 25.9 µg/mL (≈ 54.7 µM) | 1.7 µg/mL (≈ 3.59 µM) | 4.06
COc1cc(O[C@H](C)c2ccc(C(F)(F)F)cc2)ccc1-c1[nH]c(-c2ccc(F)nc2)nc1Cl [Example 290] | 137 to 139 °C | < 0.3 µg/mL | 27.6 µg/mL (≈ 56.1 µM) | 2.64
COc1cc(OCc2cnc(Cl)s2)ccc1-c1cnc(-c2ccc(F)nc2)[nH]1 [Example 321] | 109 to 116 °C | 69.4 µg/mL (≈ 166 µM) | 1.9 µg/mL (≈ 4.56 µM) | 1.82
COc1cc(OCc2cncc(C(F)(F)F)c2)ccc1-c1[nH]c(-c2ccc(F)nc2)nc1Cl [Example 279] | 188 to 190 °C | 4.1 µg/mL (≈ 8.56 µM) | 0.5 µg/mL (≈ 1.04 µM) | 3.63
COc1cc(OCc2ccc(C(F)(F)F)cn2)ccc1-c1nc(-c2ccc(F)nc2)n(C)c1Br [Example 302] | 179 to 181 °C | > 107 µg/mL | < 0.4 µg/mL | 2.44

Continued, in another order:

melting point | solubility at 24 h [2, 3] | solubility at 24 h [2, 4] | SMILES | fold induction at 10 µM [1]
70 to 75 °C | 83.6 µg/mL (≈ 183 µM) | 10.8 µg/mL (≈ 23.6 µM) | COc1cc(OCc2ncc(C(F)(F)F)cc2F)ccc1-c1cnc(C2CC(F)(F)C2)[nH]1 [Example 349] | 2.2
202 to 204 °C | 1.9 µg/mL (≈ 3.6 µM) | < 0.4 µg/mL | Oc1cc(OCc2ncc(C(F)(F)F)cc2F)ccc1-c1[nH]c(-c2ccc(F)nc2)nc1Br [Example 408] | 1.24
144 to 146 °C | 1.6 µg/mL (≈ 3.3 µM) | 1.8 µg/mL (≈ 3.71 µM) | Fc1ccc(-c2nc(Cl)c(-c3ccc(OCc4ncc(C(F)(F)F)cc4F)cc3F)[nH]2)cn1 [Example 370] | 3.31
105 to 110 °C | 89.6 µg/mL (≈ 196 µM) | 22.4 µg/mL (≈ 49 µM) | COc1cc(-c2cnc(C3CC(F)(F)C3)[nH]2)ccc1OCc1ncc(C(F)(F)F)cc1F [Example 348] | 1.76
178 to 182 °C | 81.2 µg/mL (≈ 192 µM) | 63.7 µg/mL (≈ 150 µM) | COc1cc(-c2cnc(C(C)(C)C)[nH]2)ccc1OCc1ncc(C(F)(F)F)cc1F [Example 380] | 1.18
180 to 183 °C | < 0.3 µg/mL | < 0.3 µg/mL | Fc1ccc(-c2nc(Cl)c(-c3ccc(OCc4ncc(C(F)(F)F)cc4F)cc3)[nH]2)cn1 [Example 355] | 3.59
147 to 149 °C | 99.1 µg/mL (≈ 196 µM) | < 0.4 µg/mL | COc1cc(OCc2ncc(C(F)(F)F)cc2F)ccc1-c1[nH]c(C2CCC(F)(F)C2)nc1Cl (centres unmarked) [Example 346] | 3.18
181 to 182 °C | 3.1 µg/mL (≈ 5.84 µM) | 3 µg/mL (≈ 5.66 µM) | COc1cc(OCc2ncc(C(F)(F)F)cc2F)ccc1-c1[nH]c(-c2ccc(F)nc2)nc1C(F)(F)F [Example 411, 3-fluoro-2-[[4-(2-(6-fluoropyridin-3-yl)-4-(trifluoromethyl)-1H-imidazol-5-yl)-3-methoxyphenoxy]methyl]-5-(trifluoromethyl)pyridine] | 1.62
160 to 163 °C | 1.6 µg/mL (≈ 3.07 µM) | < 0.4 µg/mL | CCSc1ccc(-c2nc(Cl)c(-c3ccc(OCc4ccc(C(F)(F)F)nc4)cc3OC)[nH]2)cn1 [Example 358] | 4.18
115 to 117 °C | 104 µg/mL (≈ 225 µM) | 6.9 µg/mL (≈ 15 µM) | CCc1cc(OCc2ncc(C(F)(F)F)cc2F)ccc1-c1cnc(-c2ccc(F)nc2)[nH]1 [Example 363] | 2.78
222 to 224 °C | 0.8 µg/mL (≈ 1.58 µM) | < 0.4 µg/mL | COc1cc(OCc2ccc(C(F)(F)F)nc2)ccc1-c1cnc(-c2ccc(Br)nc2)[nH]1 [Example 388] | 2.13
100 to 105 °C | 94.6 µg/mL (≈ 199 µM) | 8 µg/mL (≈ 16.8 µM) | COc1cc(OCc2ncc(C(F)(F)F)cc2F)ccc1-c1[nH]c(-c2ccc(F)nc2)nc1C [Example 331] | 2.17
155 to 157 °C | 88.3 µg/mL (≈ 194 µM) | < 0.3 µg/mL | COc1cc(OCc2ncc(C(F)(F)F)cc2F)ccc1-c1[nH]c(C2CCC2)nc1Cl [Example 373] | 3.03
105 to 110 °C | 93.4 µg/mL (≈ 192 µM) | 6.6 µg/mL (≈ 13.6 µM) | COc1cc(OCc2ncc(C(F)(F)F)cc2F)ccc1-c1cnc(C2CCC(F)(F)CC2)[nH]1 [Example 335] | 2.37
